In patent US20230348475A1, “IMIDAZOPYRIDAZINE AND IMIDAZOPYRAZINE COMPOUNDS AS INHIBITORS OF CDK7” (THE TRANSLATIONAL GENOMICS RESEARCH INSTITUTE, priority 2020, published 2023):
Structures can show the parent of a compound that is named as a salt.

How the values were obtained:
[1] = tested on: A673 Ewingsarcoma cell line; test: Cell viability assay (Cell Titer Glo), A673; format: cell-based; settings: 72 hour incubation
Protocol: (§1) Materials: • Cell Lines (Treated according to ATCC guidelines) • Cell Titer Glo (Promega Cat #G7572) • DMSO • 96-well White Tissue Culture Treated Plates (Perkin Elmer Cat #60005680)
(§2) Cells were seeded in a white 96-well tissue culture treated plate at a density of 1500 cells in 90 μL of media per well and allowed to settle overnight. A ten point serial dilution of drugs was prepared at 10×concentration in media with the final assay concentrations starting at 30 μM, 10 μM, 3 μM, 1 μM, 0.3 μM . . . 0 μM. A dilution of DMSO was included as a control. The assay was set up by adding 10 μL of the corresponding drug to each well in duplicate, followed by a 72 hour incubation at 37° C., 5% CO2. Cell viability was quantified by adding 90 μL of Cell Titer Glo to each well and incubating at room temperature for 10 minutes. The reaction was quantified by measuring luminescence using the Envision Plate Reader. Data was analyzed using Graphpad Prism 7 software.

[2] = tested on: Kasumi1 leukemia cancer cell line; test: Cell viability assay (Cell Titer Glo), Kasumi1; format: cell-based; settings: 72 hour incubation
Protocol: as §1, §2

[3] = tested on: A2780 ovarian cancer cell line; test: Cell viability assay (Cell Titer Glo), A2780; format: cell-based; settings: 72 hour incubation
Protocol: as §1, §2

[4] = tested on: MiaPaCa2 pancreatic cancer cell line; test: Cell viability assay (Cell Titer Glo), MiaPaCa2; format: cell-based; settings: Table 7a, pancreatic cancer cell line, 72 hour incubation
Protocol: as §1, §2

CDK7/CycH/MAT1 = CDK7/CycH/MAT1 (Homo sapiens, UniProt P50613); test: Kinase Glo (ADP-Glo) biochemical assay, CDK7; settings: CDK7/CycH/MAT1 40 ng, ATP 1 μM, 60 minutes at RT, luminescence
Protocol: Materials: • Assay Buffer: 50 mM HEPES, 3 mM MgCl2, 3 mM MnCl2, 1 mM DTT, 3 μM Na3VO4, pH 7.5 • Substrate RB • CTF Peptide (ProQinase #: 0040-0000-6) • Enzymes • CDK7/CycH/MAT1 (ProQinase #: 0366-0360-4) • ADP-Glo™ Assay (Promega #: V9101) • ATP: 10 mM • ADP-Glo™ Reagent • Kinase Detection Reagent • 384-well white assay plates
A ten point serial dilution of compound was prepared at 5X concentration in assay buffer with the final assay concentrations starting at 30 μM, 10 μM, 3 μM, 1 μM . . . 0 μM. Enzyme, substrate, and ATP were used at 40 ng, 200 ng (or 400 ng)* and 1 μM, respectively. The assay plate was set up by mixing the components in a total reaction volume of 10 μL per well. The plate was centrifuged gently for 10 seconds and incubated at room temperature (RT) for 60 minutes in the dark. The ADP-Glo Reagent and kinase detection reagent were added and incubated as recommended. The reaction was quantified by measuring luminescence on the Perkin Elmer Envision plate reader.

[5] = tested on: HPAC pancreatic cancer cell line; test: Cell viability assay (Cell Titer Glo), HPAC; format: cell-based; settings: Table 7a, pancreatic cancer cell line, 72 hour incubation
Protocol: as §1, §2

[6] = tested on: MDA-MB-231 breast cancer cell line; test: Cell viability assay (Cell Titer Glo), MDA-MB-231; format: cell-based; settings: Table 7a, breast cancer cell line, 72 hour incubation
Protocol: as §1, §2

[7] = Homo sapiens, Kasumi 1, Table 7a

CDK7/CycH/MAT1, sequence (P50613 whole entry): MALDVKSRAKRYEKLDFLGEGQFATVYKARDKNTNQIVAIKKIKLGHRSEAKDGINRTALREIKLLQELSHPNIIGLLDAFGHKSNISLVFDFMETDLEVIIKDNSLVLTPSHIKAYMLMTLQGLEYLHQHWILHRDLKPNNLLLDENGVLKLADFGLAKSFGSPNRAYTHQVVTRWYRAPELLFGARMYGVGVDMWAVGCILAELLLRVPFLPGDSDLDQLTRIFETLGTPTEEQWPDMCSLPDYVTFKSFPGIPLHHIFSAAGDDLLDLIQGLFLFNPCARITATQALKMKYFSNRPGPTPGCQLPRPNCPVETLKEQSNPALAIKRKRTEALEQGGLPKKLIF
CDK7/CycH/MAT1, sequence (P51946 whole entry partner): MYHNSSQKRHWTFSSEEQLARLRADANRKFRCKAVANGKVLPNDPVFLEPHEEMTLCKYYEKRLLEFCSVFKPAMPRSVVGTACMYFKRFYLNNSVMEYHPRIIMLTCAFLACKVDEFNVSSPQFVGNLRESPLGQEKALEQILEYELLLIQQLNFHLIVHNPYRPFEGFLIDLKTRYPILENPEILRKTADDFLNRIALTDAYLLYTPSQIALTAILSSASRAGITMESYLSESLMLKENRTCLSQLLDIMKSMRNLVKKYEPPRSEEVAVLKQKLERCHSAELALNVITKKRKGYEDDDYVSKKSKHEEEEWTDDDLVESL
CDK7/CycH/MAT1, sequence (P51948 whole entry partner): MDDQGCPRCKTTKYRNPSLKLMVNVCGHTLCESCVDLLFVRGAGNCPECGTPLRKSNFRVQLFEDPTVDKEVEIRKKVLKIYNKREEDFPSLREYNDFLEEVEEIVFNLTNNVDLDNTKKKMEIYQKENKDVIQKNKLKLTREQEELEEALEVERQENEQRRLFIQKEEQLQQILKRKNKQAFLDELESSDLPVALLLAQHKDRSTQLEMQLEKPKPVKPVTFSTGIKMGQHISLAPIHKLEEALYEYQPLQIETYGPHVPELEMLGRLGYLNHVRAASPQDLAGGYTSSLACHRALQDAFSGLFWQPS

IC50 ([1]; Homo sapiens, A673, Table 7a) | IC50 [2, 7] | IC50 ([3]; Homo sapiens, A2780, Table 7a) | IC50 ([4]; Homo sapiens, MIA PaCa-2) | IC50 (CDK7/CycH/MAT1) | IC50 ([5]; Homo sapiens, HPAC) | IC50 ([6]; Homo sapiens, MDA-MB-231) | IC50 ([1]; Table 7a) | IC50 ([2]; Table 7a) | IC50 ([3]; Table 7a) | IC50 [4] | IC50 [5] | IC50 [6] | Compound
1000 to 5000 nM | 1000 to 5000 nM | 1000 to 5000 nM | 1000 to 5000 nM | < 100 nM | 1000 to 5000 nM | 1000 to 5000 nM |  |  |  |  |  |  | c1ccc(CNc2cc(SC3CCCNC3)nn3c(C4CC4)cnc23)cc1 (stereo not drawn) [Compound 22, N-benzyl-3-cyclopropyl-6-(piperidin-3-ylthio)imidazo[1,2-b]pyridazin-8-amine formate]
< 1000 nM | 1000 to 5000 nM | < 1000 nM | < 1000 nM | < 100 nM | < 1000 nM | 1000 to 5000 nM |  |  |  |  |  |  | COc1ccccc1CNc1cc(SC2CCNCC2)nn2c(C(C)C)cnc12 [Compound 35, hydrochloride]
1000 to 5000 nM | 1000 to 5000 nM | < 1000 nM | 1000 to 5000 nM | < 100 nM | 1000 to 5000 nM | 1000 to 5000 nM |  |  |  |  |  |  | CC(C)c1cnc2c(N[C@@H](C)c3ccccc3)cc(SC3CCNCC3)nn12 [Compound 24, (S)-3-isopropyl-N-(1-phenylethyl)-6-(piperidin-4-ylthio)imidazo[1,2-b]pyridazin-8-amine]
1000 to 5000 nM | 1000 to 5000 nM | 1000 to 5000 nM | < 1000 nM | < 100 nM | 1000 to 5000 nM | 1000 to 5000 nM |  |  |  |  |  |  | CC(C)c1cnc2c(Nc3cccc(F)c3)cc(NC3CCNCC3)nn12 [Compound 45, N8-(3-fluorophenyl)-3-isopropyl-N6-(piperidin-4-yl)imidazo[1,2-b]pyridazine-6,8-diamine hydrochloride]
 |  | < 1000 nM | < 1000 nM | < 100 nM | < 1000 nM | 1000 to 5000 nM |  |  |  |  |  |  | CC(C)c1cnc2c(NCc3ccccc3C(F)(F)F)cc(SC3CCNCC3)nn12 [Compound 53, 3-isopropyl-6-(piperidin-4-ylthio)-N-(2-(trifluoromethyl)benzyl)imidazo[1,2-b]pyridazin-8-amine hydrochloride]
1000 to 5000 nM | > 5000 nM | 1000 to 5000 nM | 1000 to 5000 nM | < 100 nM | 1000 to 5000 nM | 1000 to 5000 nM |  |  |  |  |  |  | COc1ccccc1CNc1cc(NC2CCNCC2)nn2c(C(C)C)cnc12 [Compound 40, 3-isopropyl-N8-(2-methoxybenzyl)-N6-(piperidin-4-yl)imidazo[1,2-b]pyridazine-6,8-diamine hydrochloride]
 |  |  |  | < 100 nM |  |  | 1000 to 5000 nM | 1000 to 5000 nM | 1000 to 5000 nM | 1000 to 5000 nM | 1000 to 5000 nM | 1000 to 5000 nM | c1ccc(CNc2cc(SC3CCCNC3)nn3c(C4CC4)cnc23)cc1 (stereo not drawn) [Compound 23, N-benzyl-3-cyclopropyl-6-(piperidin-3-ylthio)imidazo[1,2-b]pyridazin-8-amine dihydrochloride salt]
< 1000 nM | < 1000 nM | < 1000 nM | < 1000 nM | < 100 nM | < 1000 nM | < 1000 nM |  |  |  |  |  |  | CC(C)c1cnc2c(Nc3cccc(F)c3)cc(SC3CCNCC3)nn12 [Compound 44, N-(3-fluorophenyl)-3-isopropyl-6-(piperidin-4-ylthio)imidazo[1,2-b]pyridazin-8-amine hydrochloride]
1000 to 5000 nM | 1000 to 5000 nM | 1000 to 5000 nM | 1000 to 5000 nM | < 100 nM | 1000 to 5000 nM | > 5000 nM |  |  |  |  |  |  | CC(C)c1cnc2c(N[C@@H](C)c3ccccc3)nc(SC3CCNCC3)cn12 [Compound 32, (S)-3-isopropyl-N-(1-phenylethyl)-6-(piperidin-4-ylthio)imidazo[1,2-α]pyrazin-8-amine dihydrochloride]
1000 to 5000 nM | 1000 to 5000 nM | < 1000 nM | 1000 to 5000 nM | < 100 nM | 1000 to 5000 nM | 1000 to 5000 nM |  |  |  |  |  |  | COc1ccccc1CNc1cc(SC2CCCNC2)nn2c(C(C)C)cnc12 (stereo not drawn) [Compound 36, hydrochloride]
1000 to 5000 nM | 1000 to 5000 nM | 1000 to 5000 nM | 1000 to 5000 nM | < 100 nM | 1000 to 5000 nM | 1000 to 5000 nM |  |  |  |  |  |  | CC(C)c1cnc2c(Nc3cccc(F)c3)cc(O[C@H]3CCCNC3)nn12 [Compound 39, (S)-N-(3-fluorophenyl)-3-isopropyl-6-(piperidin-3-yloxy)imidazo[1,2-b]pyridazin-8-amine hydrochloride]
> 5000 nM | 1000 to 5000 nM | 1000 to 5000 nM | 1000 to 5000 nM | < 100 nM | 1000 to 5000 nM | > 5000 nM |  |  |  |  |  |  | CC(C)c1cnc2c(N[C@@H](C)c3ccccc3)nc(SC3CCCNC3)cn12 (stereo partly drawn) [Compound 34, 3-isopropyl-N-((S)-1-phenylethyl)-6-(piperidin-3-ylthio)imidazo[1,2-α]pyrazin-8-amine hydrochloride]
 |  | 1000 to 5000 nM | 1000 to 5000 nM | < 100 nM | 1000 to 5000 nM | > 5000 nM |  |  |  |  |  |  | COc1ccccc1CNc1nc(SC2CCNCC2)cn2c(C(C)C)cnc12 [Compound 51, 3-isopropyl-N-(2-methoxybenzyl)-6-(piperidin-4-ylthio)imidazo[1,2-a]pyrazin-8-amine formate]
1000 to 5000 nM | 1000 to 5000 nM | 1000 to 5000 nM | 1000 to 5000 nM | < 100 nM | 1000 to 5000 nM | 1000 to 5000 nM |  |  |  |  |  |  | CC(C)c1cnc2c(NCc3ccccc3OC(F)(F)F)cc(SC3CCCNC3)nn12 (stereo not drawn) [Compound 37, 3-isopropyl-6-(piperidin-3-ylthio)-N-(2-(trifluoromethoxy)benzyl)imidazo[1,2-b]pyridazin-8-amine]
1000 to 5000 nM | > 5000 nM | 1000 to 5000 nM | 1000 to 5000 nM | < 100 nM | 1000 to 5000 nM | 1000 to 5000 nM |  |  |  |  |  |  | CC(C)c1cnc2c(NCc3ccccc3OC(F)(F)F)cc(NC[C@H]3CNCCO3)nn12 [Compound 48, (R)-3-isopropyl-N6-(morpholin-2-ylmethyl)-N8-(2-(trifluoromethoxy)benzyl)imidazo[1,2-b]pyridazine-6,8-diamine hydrochloride]
1000 to 5000 nM | > 5000 nM | 1000 to 5000 nM | 1000 to 5000 nM | < 100 nM | 1000 to 5000 nM | 1000 to 5000 nM |  |  |  |  |  |  | CC(C)c1cnc2c(NCc3ccccc3OC(F)(F)F)cc(NC[C@@H]3CNCCO3)nn12 [Compound 46, (S)-3-isopropyl-N6-(morpholin-2-ylmethyl)-N8-(2-(trifluoromethoxy)benzyl)imidazo[1,2-b]pyridazine-6,8-diamine hydrochloride]
< 1000 nM | 1000 to 5000 nM | < 1000 nM | < 1000 nM | < 100 nM | < 1000 nM | 1000 to 5000 nM |  |  |  |  |  |  | CC(C)c1cnc2c(NCc3ccccc3OC(F)(F)F)cc(SC3CCNCC3)nn12 [Compound 33]
1000 to 5000 nM | 1000 to 5000 nM | 1000 to 5000 nM | > 5000 nM | < 100 nM | 1000 to 5000 nM | > 5000 nM |  |  |  |  |  |  | CC(C)c1cnc2c(NCc3ccccc3)nc(SC3CCCNC3)cn12 (stereo not drawn) [Compound 26, N-benzyl-3-isopropyl-6-(piperidin-3-ylthio)imidazo[1,2-α]pyrazin-8-amine formate salt]
1000 to 5000 nM |  | 1000 to 5000 nM | 1000 to 5000 nM | < 100 nM | 1000 to 5000 nM | 1000 to 5000 nM |  |  |  |  |  |  | CC(C)c1cnc2c(NCc3ccccc3)cc(S[C@@H]3CCCNC3)nn12 (single isomer, unassigned) [Compound 41, hydrochloride]

Compound | IC50 ([1]; Homo sapiens, A673, Table 7a) | IC50 [2, 7] | IC50 ([3]; Homo sapiens, A2780, Table 7a) | IC50 ([4]; Homo sapiens, MIA PaCa-2) | IC50 (CDK7/CycH/MAT1) | IC50 ([5]; Homo sapiens, HPAC) | IC50 ([6]; Homo sapiens, MDA-MB-231) | IC50 ([1]; Table 7a) | IC50 ([2]; Table 7a) | IC50 ([3]; Table 7a) | IC50 [4] | IC50 [5] | IC50 [6]
CC(C)c1cnc2c(NCc3ccccc3OC(F)(F)F)cc(NC3CCNCC3)nn12 [Compound 38, hydrochloride] | 1000 to 5000 nM | 1000 to 5000 nM | 1000 to 5000 nM | 1000 to 5000 nM | < 100 nM | 1000 to 5000 nM | 1000 to 5000 nM |  |  |  |  |  | 
